# Values quoted from earlier work in publication PMC3005221 (Biochemistry, 2010).
# Molecular target: HDAC6 BUZ domain
# Settings: read-out: KD for HDAC6 BUZ domain (reported); full-length ubiquitin
substance,measurement,value
ubiquitin,Kd,60 nM
